IC50 data for two compounds are collected here from ChEMBL document CHEMBL1152087, “Inhibition of mevalonate 5-pyrophosphate decarboxylase by a proline-containing transition state analog” (Bioorg Med Chem Lett, 1996).

By IC50 is commonly meant the concentration needed to halve the response being measured. Lower therefore signals greater potency.

The target in assay [1] is T1, Diphosphomevalonate decarboxylase (Homo sapiens, UniProt P53602).
T1 sequence (P53602 whole entry): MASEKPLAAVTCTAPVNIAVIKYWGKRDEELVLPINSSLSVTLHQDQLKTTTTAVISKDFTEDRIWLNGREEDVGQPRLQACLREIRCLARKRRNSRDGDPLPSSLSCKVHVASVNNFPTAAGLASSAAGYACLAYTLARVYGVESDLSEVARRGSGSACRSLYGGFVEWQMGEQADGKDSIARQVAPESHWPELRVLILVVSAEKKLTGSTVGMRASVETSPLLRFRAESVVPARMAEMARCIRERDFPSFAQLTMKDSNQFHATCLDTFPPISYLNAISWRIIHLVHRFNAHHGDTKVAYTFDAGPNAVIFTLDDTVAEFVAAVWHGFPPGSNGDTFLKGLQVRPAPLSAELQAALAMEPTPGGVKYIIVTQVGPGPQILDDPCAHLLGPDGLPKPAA
Kind of assay: Compound was evaluated for its inhibitory activity against Mevalonate 5-pyrophosphate decarboxylase.

Assay [2] has as its target T1, Diphosphomevalonate decarboxylase. The experiment in a line: Compound was evaluated for its inhibitory activity against MevPP decarboxylase.

Molecules are shown by their SMILES.

For `O=C(O)CSCCOP(=O)(O)OP(=O)(O)O`, half-maximal inhibition in assay [1] (IC50) was put at 150 nM.

In assay [2], `CN(CC(=O)O)C(=O)COP(=O)(O)OP(=O)(O)O` showed a 50% inhibitory concentration (IC50) of 300 nM.
